Data set [1] can be described thus: Tmax at a single subcutaneous administration of 40 mg/kg in mice. The data set is classed as ADME, organism-based. Set-up: dose 40 mg/kg, route subcutaneous. The conditions noted are these: mouse, in vivo, sc.
A short description of data set [2]: Urinary recovery by disk method using Streptococcus pyogenes (0-24 h). The data set is classed as ADME, organism-based. The settings on record: mouse, urine; read-out: UR.
Data set [3] can be described thus: Half-life at a single subcutaneous administration of 40 mg/kg in mice. It counts as ADME, organism-based. Set-up: dose 40 mg/kg, route subcutaneous. The settings on record: mouse, in vivo, sc.
Data set [4] has as its system Mus musculus. Put plainly: Area under the curve was determined for the compound at a single subcutaneous administration of 40 mg/kg in mice. It counts as ADME, organism-based. Set-up: dose 40 mg/kg, route subcutaneous; unit not given here. The settings on record: in vivo, sc.
A short description of data set [5]: Peak concentration at a single subcutaneous administration of 40 mg/kg in mice. The data set is classed as ADME, organism-based. Set-up: dose 40 mg/kg, route subcutaneous. The conditions noted are these: mouse, in vivo, sc.
The target of data set [6] is T1, Dipeptidase 1 (Sus scrofa) (UniProt P22412).
T1 sequence (whole entry): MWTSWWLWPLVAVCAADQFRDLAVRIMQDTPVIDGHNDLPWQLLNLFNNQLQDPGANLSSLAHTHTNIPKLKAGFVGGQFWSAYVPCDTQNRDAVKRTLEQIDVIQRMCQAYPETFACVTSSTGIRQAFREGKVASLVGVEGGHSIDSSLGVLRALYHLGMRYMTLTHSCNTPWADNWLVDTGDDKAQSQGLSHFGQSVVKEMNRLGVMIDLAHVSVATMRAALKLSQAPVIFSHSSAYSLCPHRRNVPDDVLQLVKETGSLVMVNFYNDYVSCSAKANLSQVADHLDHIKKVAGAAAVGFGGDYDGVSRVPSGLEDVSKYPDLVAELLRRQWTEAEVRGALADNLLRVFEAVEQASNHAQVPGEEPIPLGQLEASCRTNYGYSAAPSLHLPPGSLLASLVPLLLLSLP
Put plainly: Compound was evaluated for DHP-1 stability by using purified porcine renal enzyme. The data set is classed as functional.

Another data set deals with Enterobacter cloacae. The data set can be described thus: Compound was evaluated for in vitro antibacterial activity against Enterobacter cloacae P99 strain by agar dilution method. It counts as functional. (In agar dilution the substance is mixed into plates at graded concentrations.)
The test system of data set [7] is Escherichia coli. Put plainly: Compound was evaluated for in vitro antibacterial activity against Escherichia coli 078 strain by agar dilution method. It counts as functional.
The subject of data set [8] is Escherichia coli. The data set can be described thus: Compound was evaluated for in vitro antibacterial activity against Escherichia coli 1507 E strain by agar dilution method. It counts as functional.
The test system of the next data set is Klebsiella oxytoca. The data set can be described thus: Compound was evaluated for in vitro antibacterial activity against Klebsiella oxytoca 1082 E strain by agar dilution method. It counts as functional.
The next data set deals with Klebsiella aerogenes. The data set can be described thus: Compound was evaluated for in vitro antibacterial activity against Klebsiella aerogenes 1522 E strain by agar dilution method. The data set is classed as functional.
The test system of data set [9] is Mus musculus. Put plainly: In vivo protective activity administered sc 1 hr after ip Enterobacter cloacae P strain infection in mice. It counts as functional. The settings on record: read-out: PD50.
Data set [10] deals with Mus musculus. Put plainly: In vivo protective activity administered sc 1 hr after ip Escherichia coli 078 strain infection in mice. The data set is classed as functional. The settings on record: read-out: PD50.
The test system of data set [11] is Mus musculus. The data set can be described thus: In vivo protective activity administered sc 1 hr after ip Streptococcus pyogenes 77A strain infection in mice. It counts as functional. The conditions noted are these: read-out: PD50.
In data set [12] the test system is Pseudomonas aeruginosa. Put plainly: Compound was evaluated for in vitro antibacterial activity against Pseudomonas aeruginosa 1771 strain by agar dilution method. It counts as functional.
The subject of another data set is Salmonella typhimurium. Put plainly: Compound was evaluated for in vitro antibacterial activity against Salmonella Typhimurium by agar dilution method. The data set is classed as functional, Salmonella enterica subsp. enterica serovar Typhimurium. The conditions noted are these: Salmonella enterica.
The next data set has as its system Streptococcus pyogenes. The data set can be described thus: Compound was evaluated for in vitro antibacterial activity against Streptococcus pyogenes 77A strain by agar dilution method. It counts as functional.
Data set [13] deals with Staphylococcus aureus. The data set can be described thus: Compound was evaluated for in vitro antibacterial activity against Staphylococcus aureus SG511 strain by agar dilution method. The data set is classed as functional.
The next data set has as its system Enterococcus faecium. The data set can be described thus: Compound was evaluated for in vitro antibacterial activity against Streptococcus faecium MD strain by agar dilution method. The data set is classed as functional.
In data set [14] the test system is Pseudomonas aeruginosa. The data set can be described thus: Compound was evaluated for in vitro antibacterial activity against Pseudomonas aeruginosa 1771 M strain by agar dilution method. It counts as functional.
Data set [15] has as its system Staphylococcus aureus. The data set can be described thus: Compound was evaluated for in vitro antibacterial activity against Staphylococcus aureus 285 strain by agar dilution method. It counts as functional.
The target of data set [16] is T1, Dipeptidase 1 (Sus scrofa). The data set can be described thus: Compound was evaluated for DHP-1 stability by using purified porcine renal enzyme which is represented as the relative rate of hydrolysis compared to imipenem (rate=100). It counts as functional.

The text below walks through data of ChEMBL document CHEMBL1133391, “Synthesis and antibacterial activity of 2alpha-functionalized 1beta-methylcarbapenems related to KR-21012” (Bioorg Med Chem Lett, 2000).

The term Tmax denotes the time at which the peak concentration occurs. In general, half-life refers to the time in which the quantity being followed falls by half. The term Cmax denotes the peak of the concentration-time curve. As a reminder, the MIC is the least concentration at which growth counts as inhibited. With `CO[C@H]1CCC[C@H]2C1=C(C(=O)[O-])N1C(=O)[C@H]([C@@H](C)O)[C@@H]21.[Na+]` [SANFETRINEM SODIUM], the Tmax in data set [1] was 22.2 min. The dose excreted in data set [2] is 20.5%. For the same compound, in data set [3], the half-life is 33 min. In the data set with Mus musculus [4], the AUC is on record as 27.39. The same compound came in with a maximum concentration (Cmax) in data set [5] of 28.8 µg/mL. The Activity in data set [6] stood at 20. The MIC in the data set on Enterobacter cloacae was 3.12 mg/L; in the data set on Escherichia coli [7], 0.049 mg/L; with Escherichia coli [8], 0.195 mg/L; in the data set with Klebsiella oxytoca it was 1.56 mg/L; against Klebsiella aerogenes it was 0.391 mg/L; against Pseudomonas aeruginosa [12], 25 mg/L. In addition, the minimal inhibitory concentration (MIC) against Salmonella typhimurium was found to be 0.195 mg/L; against Streptococcus pyogenes, 0.007 mg/L; against Staphylococcus aureus [13] it was 0.098 mg/L; in the data set with Enterococcus faecium, 1.56 mg/L; with Pseudomonas aeruginosa [14], 0.391 mg/L; in the data set with Staphylococcus aureus [15] it was 0.049 mg/L. In addition, the ED50 is 1.18 mg/kg with Mus musculus [9], 3.13 mg/kg with Mus musculus [10] and 1.46 mg/kg in the data set on Mus musculus [11].
`CC(C)[C@@H](O)C1=C(C(=O)[O-])N2C(=O)[C@H]([C@@H](C)O)C2[C@H]1C.[Na+]` (some centres not stated): the Tmax in [1] is 15 min. For the same compound, the dose excreted in data set [2] was 25.1%. Further, in data set [3], the half-life was 41.4 min. In the data set with Mus musculus [4], this compound yielded an AUC of 20.9. The compound further registered a maximum concentration (Cmax) in data set [5] of 25 µg/mL. The compound further showed an Activity in data set [6] of 21. Besides, the MIC in the data set with Enterobacter cloacae worked out at 1.56 mg/L; in the data set with Escherichia coli [7] it was 0.049 mg/L; in the data set on Escherichia coli [8], 0.049 mg/L; against Klebsiella oxytoca, 1.56 mg/L; with Klebsiella aerogenes, 0.391 mg/L; in the data set with Pseudomonas aeruginosa [12], 100 mg/L. In addition, the MIC with Salmonella typhimurium was 0.098 mg/L; with Streptococcus pyogenes, 0.007 mg/L; in the data set with Staphylococcus aureus [13] it was 0.098 mg/L; in the data set with Enterococcus faecium it was 1.56 mg/L; in the data set with Pseudomonas aeruginosa [14], 0.781 mg/L; in the data set with Staphylococcus aureus [15] it was 0.098 mg/L. Besides, the ED50 was determined as 1.37 mg/kg with Mus musculus [9], 1.3 mg/kg in the data set with Mus musculus [10] and 1.19 mg/kg with Mus musculus [11].
As to `CC(C)[C@H](O)C1=C(C(=O)[O-])N2C(=O)[C@H]([C@@H](C)O)C2[C@H]1C.[Na+]` (some centres not stated), the MIC with Enterobacter cloacae is 12.5 mg/L; against Escherichia coli [7], 1.56 mg/L; with Escherichia coli [8], 0.391 mg/L; against Klebsiella oxytoca, 25 mg/L; in the data set on Klebsiella aerogenes, 12.5 mg/L; in the data set on Pseudomonas aeruginosa [12] it was 100 mg/L. Besides, the MIC in the data set with Salmonella typhimurium is 0.781 mg/L; against Streptococcus pyogenes it was 0.025 mg/L; against Staphylococcus aureus [13], 0.781 mg/L; with Enterococcus faecium, 12.5 mg/L; with Pseudomonas aeruginosa [14], 1.56 mg/L; against Staphylococcus aureus [15] it was 0.781 mg/L.
`C[C@H]1C([C@H](O)C2CC2)=C(C(=O)[O-])N2C(=O)[C@H]([C@@H](C)O)C12.[Na+]` (some centres not stated): the Tmax in data set [1] was 10.2 min. In data set [2], the dose excreted was found to be 14.3%. Besides, the half-life in data set [3] is 18.6 min. Further, the AUC in the data set with Mus musculus [4] amounted to 6.86. In [5], the concentration peaked (Cmax) at 18.1 µg/mL. Further, the Activity in data set [16] came to 38. In addition, the MIC in the data set with Enterobacter cloacae worked out at 0.781 mg/L; with Escherichia coli [7] it was 0.098 mg/L; in the data set on Escherichia coli [8], 0.049 mg/L; in the data set on Klebsiella oxytoca it was 0.781 mg/L; against Klebsiella aerogenes, 0.195 mg/L; in the data set on Pseudomonas aeruginosa [12] it was 100 mg/L. Besides, the MIC against Salmonella typhimurium came to 0.098 mg/L; with Streptococcus pyogenes it was 0.007 mg/L; in the data set on Staphylococcus aureus [13] it was 0.049 mg/L; with Enterococcus faecium, 0.781 mg/L; in the data set with Pseudomonas aeruginosa [14], 1.56 mg/L; against Staphylococcus aureus [15] it was 0.049 mg/L. Besides, the results for the ED50 with Mus musculus [9], with Mus musculus [10] and in the data set with Mus musculus [11] were 12.6 mg/kg, 23.1 mg/kg and 7.94 mg/kg, respectively.
`CC[C@H](O)C1=C(C(=O)[O-])N2C(=O)[C@H]([C@@H](C)O)C2[C@H]1C.[Na+]` (some centres not stated): the MIC in the data set with Enterobacter cloacae stood at 0.781 mg/L; in the data set with Escherichia coli [7], 0.391 mg/L; against Escherichia coli [8], 0.391 mg/L; in the data set on Klebsiella oxytoca, 12.5 mg/L; with Klebsiella aerogenes, 0.781 mg/L; against Pseudomonas aeruginosa [12], 100 mg/L. Also, the minimum inhibitory concentration (MIC) in the data set on Salmonella typhimurium came out at 0.781 mg/L; in the data set on Streptococcus pyogenes it was 0.049 mg/L; against Staphylococcus aureus [13], 0.391 mg/L; against Enterococcus faecium, 12.5 mg/L; against Pseudomonas aeruginosa [14], 6.25 mg/L; against Staphylococcus aureus [15], 0.391 mg/L.
